According to US20200291100A1, “TREATMENT OF AGE-RELATED AND MITOCHONDRIAL DISEASES BY INHIBITION OF HIF-1 ALPHA FUNCTION” (President and Fellows of Harvard College, priority 2012, published 2020):
“Also recorded” adds a separate entry of the source.

Legend:
SIRT1-tg mice = experiment: DMOG treatment of SIRT1-tg mice, gastrocnemius readouts; format: in vivo, mouse; settings: DMOG 300 mg/kg IP per day, 5 days
Procedure: Whole body SIRT1 overexpressor (SIRT1-tg) mice of 6 months of age were given interperitoneal (IP) injections of 300 mg DMOG/kg body weight per day or the equivalent volume of PBS for 5 consecutive days.
(§1) ATP content was measured with a commercial kit according to the manufacturer's instructions (Roche).
(§2) RNA from skeletal muscle tissue and C2C12 cells were extracted with RNeasy mini kit (Qiagen) according to the instructions and quantified using the NanoDrop 1000 spectrophotometer (Thermo Scientific). cDNA was synthesized with the iSCRIP cDNA synthesis kit (BioRad) using 600 ng of RNA. Quantitative RT-PCR reactions were performed using 1 μM of primers and LightCycler® 480 SYBR Green Master (Roche) on an LightCycler® 480 detection system (Roche). Calculations were performed by a comparative method (2-ΔCT) using 18S as an internal control. For mtDNA analysis, total DNA was extracted with DNeasy blood and tissue kit (Qiagen). mtDNA was amplified using primers specific for the mitochondrial cytochrome c oxidase subunit 2 (COX2) gene and normalized to genomic DNA by amplification of the ribosomal protein s18 (rps18) nuclear gene. Primers were designed using the IDT software (IDT) and the primer sequences can be found in Table 1.
(§3) Protein extracts from tissue or C2C12 cells were obtained by lysis in ice-cold lysis buffer (150 mM NaCl, 10 mM Tris HCl (pH 7.4), 1 mM EDTA, 1 mM EGTA, 1% Triton X-100, 0.5% NP-40) supplemented with a cocktail of protease and phosphatase inhibitors (Roche). Protein content was determined by the Bradford protein assay (Biorad), and 50 μg proteins were run on SDS-PAGE under reducing conditions. The separated proteins were then electrophoretically transferred to a polyvinylidene difluoride membrane (Perkin-Elmer). […] The immunostaining was detected using horseradish peroxidase-conjugated anti-rabbit or anti-mouse immunoglobulin for 1 h at room temperature.

[1] = tested on: primary PGC-1α/β KO myotubes; experiment: NMN with or without HIF stabilizing compounds in PGC-1α/β KO myotubes, qPCR of mitochondrially-encoded ETC genes; format: cell-based, mouse
Procedure: As a functional test of whether NMN reverses genome asynchrony by depleting cells of HIF-1α, primary PGC-1α/β KO myotubes were incubated with NMN in the presence and absence of the HIF stabilizing compounds DMOG and DFO. […] Primary myoblasts cells were isolated from WT, SIRT1 KO (Price et al., 2012) and PGC-1α/β KO (Zechner et al., 2010) mice as previously described (Price et al., 2012). WT and PGC-1α/β KO primary myoblasts were plated and allowed to differentiate into myotubes by replacing the media with low glucose DMEM supplemented with 2% horse serum (Sigma-Aldrich) for 4 days. After the differentiation the cells were infected with empty vector or flag-SIRT1 adenovirus as described before ([…] al., 2007). Media was replaced with fresh DMEM supplemented with 2% horse serum (Sigma-Aldrich) for an additional 48 hr and, after that the cells were harvested for the different assays as described. […] Quantitative RT-PCR reactions were performed using 1 μM of primers and LightCycler® 480 SYBR Green Master (Roche) on an LightCycler® 480 detection system (Roche). Calculations were performed by a comparative method (2-ΔCT) using 18S as an internal control. For mtDNA analysis, total DNA was extracted with DNeasy blood and tissue kit (Qiagen). mtDNA was amplified using primers specific for the mitochondrial cytochrome c oxidase subunit 2 (COX2) gene and normalized to genomic DNA by amplification of the ribosomal protein s18 (rps18) nuclear gene. Primers were designed using the IDT software (IDT) and the primer sequences can be found in Table 1.

[2] = tested on: 6- and 22-month-old C57BL/6J mice; experiment: NMN treatment of 6- and 22-month-old mice, skeletal muscle readouts; format: in vivo, mouse; settings: NMN for one week
Source text: C57BL/6J mice of 6, 22, or 30 months of age were obtained from the National Institutes of Aging mouse aging colony. Additionally 22 months old caloric restricted mice were also obtained from the National Institutes of Aging mouse aging colony. EGLN1 KO, SIRT1 KO and SIRT1 OE mice were generated as previously described (Minamishima et al., 2008; Price et al., 2012). Mice were acclimated for at least one-week prior to sacrifice. 3, 6, 22 and 24-month-old mice were given interperitoneal (IP) injections of 500 mg NMN/kg body weight per day or the equivalent volume of PBS for 7 consecutive days at 5:00 pm and 7:00 am on day 8 and sacrificed 4 hr after last injection.
Cytochrome c oxidase activity was polarographically determined based on the 02 consumption upon cytochrome c oxidation, as previously described (Brautigan et al., 1978). The reaction was carried out at 25° C. in 1.3 mL of standard respiratory medium (as in mitochondrial respiration) supplemented with 2 μM rotenone, 10 μM oxidized cytochrome c, 0.3 mg TritonX-100. Following addition of the sample, the reaction was initiated by adding 5 mM ascorbate plus 0.25 mM tetramethylphenylene-diamine (TMPD).
as §1, §2, §3
NAD^+ from skeletal muscle was quantified with a commercially available kit (BioVision) according to the manufacturer's instructions and as described before (Gomes et al., 2012).
It was shown above that decreased levels of NAD^+ associated with age invokes a SIRT1 dependent pseudohypoxic response that disrupts mitochondrial homeostasis. Therefore, artificially boosting NAD^+ levels in old mice should restore mitochondrial homeostasis by reducing HIF-1α levels and restoring the expression of mitochondrial-encoded ETC components. Administration of NMN, a compound recently shown to increase NAD^+ levels in a variety of tissues (Yoshino et al., 2011), to 6- and 22-month-old C57BL/6J mice for one week increased levels of cellular NAD^+ in both the young and old mice were by 2-fold. The boost in the treated 22-month-old mice resembled the untreated 6-month-olds (FIG. 17A).

Egln1 KO mice = experiment: NMN treatment of Egln1 KO mice; format: in vivo, mouse; settings: skeletal muscle of Egln1 KO mice compared to WT controls; NMN 500 mg/kg IP, 7 days
Procedure: Whole body adult-inducible Egln1 knockout mice (Minamishima et al, 2007) were treated with IP injection of tamoxifen for 3 days after which they were allowed to rest. The mice were given interperitoneal (IP) injections of 500 mg NMN/kg body weight per day or the equivalent volume of PBS for 7 consecutive days at 5:00 pm and 7:00 am on day 8 and sacrificed 4 hr after last injection. All animal studies followed the guidelines of and were approved by the Harvard Institutional Animal Care and Use Committee.
as §1
RNA from skeletal muscle tissue and C2C12 cells were extracted with RNeasy mini kit (Qiagen) according to the instructions and quantified using the NanoDrop 1000 spectrophotometer (Thermo Scientific). cDNA was synthesized with the iSCRIP cDNA synthesis kit (BioRad) using 600 ng of RNA. Quantitative RT-PCR reactions were performed using 1 μM of primers and LightCycler® 480 SYBR Green Master (Roche) on an LightCycler® 480 detection system (Roche). Calculations were performed by a comparative method (2-ΔCT) using 18S as an internal control. […]

For `COC(=O)CNC(=O)C(=O)OC` [DMOG, dimethyloxaloylglycine], the “HIF-1α protein (immunoblot)” value (SIRT1-tg mice) was “increase HIF-1α”, the “effect on the increase in ATP levels observed in SIRT1-tg mice” value (SIRT1-tg mice) was “abolished the increase” and the “effect on the increase in expression of mitochondrial-encoded genes observed in SIRT1-tg mice” value (SIRT1-tg mice) was “abolished the increase”. The “effect on NMN-induced expression of mitochondrially-encoded ETC genes” value ([1]; HIF stabilizing compound added to NMN-treated cells, 1 mM DMOG or 10 μM DFO, 12 hours) was “completely abolished”.
In the case of `NC(=O)c1ccc[n+]([C@@H]2O[C@H](COP(=O)([O-])O)[C@@H](O)[C@H]2O)c1` [NMN, nicotinamide mononucleotide], the “expression of mitochondrial-encoded genes” value ([2]; gastrocnemius, qPCR, old mice) is reported as “restored”, the ATP levels ([2]; gastrocnemius, old mice) is reported as “increase” and the COX activity ([2]; gastrocnemius, old mice) is reported as “increase”. For the same compound, the “HIF-1α protein (immunoblot)” value ([2]; gastrocnemius, old mice) was “reversed; also recorded: reduced the level of HIF-1α”, the “VHL protein (immunoblot)” value ([2]; gastrocnemius, old mice) was “reversed the age-induced decline” and the “lactate levels in the skeletal muscle” value ([2]; old mice) was “suppressed the increase”. The “muscle wasting markers Atrogin-1 and MuRF1” value ([2]; skeletal muscle of old mice, immunoblot) was “completely reversed”, the “expression of inflammation markers” value ([2]; skeletal muscle of old mice, qPCR) was “completely reversed” and the “phosphorylation of AKT and IRS-1” value ([2]; soleus of old mice, immunoblot) was “increasing the phosphorylation”. The “age-induced insulin resistance in the skeletal muscle” value ([2]; soleus of old mice) was “reverse age-induced insulin resistance”, the “levels of cellular NAD+” value ([2]; young and old mice) was 2 fold and the “expression of mitochondrially-encoded ETC genes (ND1, CYTB, COX1, ATP6)” value ([1]; NMN alone, versus PBS) was “induced expression”. The ATP levels (Egln1 KO mice) was “did not restore” and the mitochondrial-encoded genes (Egln1 KO mice) was “did not restore”.
